According to patent publication US7166588B2 (priority 2000, dated 2007):
Counter-ions that a name gives are not always drawn.

Target: acetylcholinesterase (AChE), human recombinant (Homo sapiens, UniProt P22303)
Assay: biochemical
Conditions: pre-incubation of the enzyme with inhibitor, read-out: IC50 (AChE, mE, hr)

acetylcholinesterase (AChE), human recombinant, sequence (P22303 32-614): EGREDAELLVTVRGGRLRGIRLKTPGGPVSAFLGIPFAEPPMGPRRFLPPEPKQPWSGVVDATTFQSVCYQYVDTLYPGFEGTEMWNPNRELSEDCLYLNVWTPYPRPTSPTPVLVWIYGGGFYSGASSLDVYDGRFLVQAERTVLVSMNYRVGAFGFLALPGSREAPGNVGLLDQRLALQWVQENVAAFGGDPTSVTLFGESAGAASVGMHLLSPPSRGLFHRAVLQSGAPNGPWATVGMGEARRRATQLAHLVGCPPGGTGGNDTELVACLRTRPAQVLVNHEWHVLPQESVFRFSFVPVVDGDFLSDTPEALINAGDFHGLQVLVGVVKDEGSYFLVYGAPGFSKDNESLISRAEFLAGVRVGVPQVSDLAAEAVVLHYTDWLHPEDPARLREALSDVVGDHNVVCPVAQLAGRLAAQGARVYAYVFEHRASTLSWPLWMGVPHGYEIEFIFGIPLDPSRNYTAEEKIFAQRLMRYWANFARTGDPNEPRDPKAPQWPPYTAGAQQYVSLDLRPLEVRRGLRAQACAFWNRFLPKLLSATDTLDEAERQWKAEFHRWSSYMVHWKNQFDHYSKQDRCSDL

Structure (SMILES) | IC50
C#CC[N+]1(C)CC[C@@]23C=C[C@@H](O)C[C@@H]2Oc2c(OC)cc(C)c(c23)C1 (mixture of isomers) [SPH-1251] | 59 µM
COc1ccc2c3c1O[C@H]1CC(O)C=C[C@@]31CCN(C(=O)OC(C)(C)C)C2 (relative stereo) [SPH-1302, (4aa,6β,8aR*)-4a,5,9,10-Tetrahydro-6-hydroxy-3-methoxy-6H-benzofuro[3a,3,2-ef][2]benzazepine-11(12H)-carboxylic acid-1,1-dimethylethyl ester] | 23 µM
COc1ccc2c3c1O[C@H]1CC(O)C=C[C@@]31CC[N+](C)(Cc1ccc(Br)cc1)C2 (single isomer, unassigned; (-)) [SPH-1184, (−)(4-Bromophenyl)methylgalanthaminium bromide hemihydrate] | 0.2 µM
COc1ccc2c3c1O[C@H]1CC(O)C=C[C@@]31CC[N+](C)(CCCCl)C2 (single isomer, unassigned; (-)) [SPH-1191, (−)(3-Chloropropyl)-galanthaminium Bromide, 1.25 H2O] | 0.35 µM
COc1ccc2c3c1O[C@@H]1CC(O)C=CC31CCN(C(=O)NC(C)C)C2 (stereo in doubt) [SPH-1214, (6R)-6-Hydroxy-N^11-isopropyl-3-methoxy-5,6,9,10-tetrahydro-4aH-[1]benzofuro[3a,3,2-ef][2]benzazepine-11(12H)carboxamide] | 4.2 µM
COc1ccc2c3c1O[C@@H]1CC(O)C=CC31CCN(c1ccnc(OCCCN(C)C)n1)C2 (stereo in doubt) [SPH-1244, (6R)-11-(2-(3-(Dimethylamino)propoxy)-4-pyrimidinyl)-3-methoxy-5,6,9,10,11,12-hexahydro-4aH-[1]benzofuro[3a,3,2-ef][2]benzazepin-6-ol] | 7.6 µM
COc1ccc2c3c1O[C@@H]1CC(O)C=CC31CCN(CCCN1CCCCC1)C2 (stereo in doubt) [SPH-1371, (4aα,6b, 8aR* )-4a,5,9,10,111,12-Hexahydro-3-methoxy-11-[3-(1-piperidinyl)propyl]-6H-benzofuro[3a,3,2-ef][2]benzazepin-6-ol, Dihydrobromide, Dihydrate] | 0.36 µM
COc1ccc2c3c1O[C@@H]1C[C@H](O)C=CC31CCN(CCCN1CC3CC1CN3c1ccc(F)cc1)C2 (stereo partly shown) [SPH-1196] | 5.2 µM
COc1cc(C)c2c3c1O[C@@H]1C[C@H](O)C=CC31CCN(CCCN1CCCCC1)C2 (stereo partly shown) [SPH-1201] | 46 µM
C#CC[N+]1(C)CCC23C=C[C@@H](O)C[C@H]2Oc2c(OC)cc(C)c(c23)C1 (stereo partly shown) [SPH-1206] | 78 µM
COc1cc(C)c2c3c1O[C@@H]1C[C@H](O)C=CC31CC[N+](C)(Cc1ccccc1)C2 (stereo partly shown) [SPH-1207] | 47 µM
CNC(=S)N1CCC23C=C[C@H](O)CC2Oc2c(OC)cc(Br)c(c23)C1 (stereo partly drawn) [SPH-1209, (6R)-1-Bromo-6-hydroxy-3-methoxy-N^11-methyl-5,6,9,10-tetrahydro-4aH-[1]benzofuro[3a,3,2-ef][2]benzazepine-11(12H)-thiocarboxylic acid amide] | 31 µM
CNC(=S)N1CCC23C=C[C@@H](O)C[C@H]2Oc2c(OC)ccc(c23)C1 (stereo partly shown) [SPH-1211] | 23 µM
COc1ccc2c3c1O[C@@H]1C[C@H](O)C=CC31CCN(C(=O)Nc1ccccc1)C2 (stereo partly shown) [SPH-1215] | 70 µM
COc1ccc2c3c1O[C@@H]1C[C@H](O)C=CC31CCN(C=C(C#N)C#N)C2 (stereo partly shown) [SPH-1219] | 28.5 µM
COc1ccc2c3c1O[C@@H]1C[C@H](O)C=CC31CCN(CCCO)C2 (stereo partly shown) [SPH-1220] | 7.2 µM
COc1ccc2c3c1O[C@@H]1C[C@H](O)C=CC31CCN(C(=O)NC(C)(C)C)C2 (stereo partly shown) [SPH-1221] | 4.8 µM
COc1ccc2c3c1O[C@@H]1C[C@H](N)C=CC31CCN(C)C2 (stereo partly drawn) [SPH-1227, [4aS-(4aα,6α,8aR*)]-4a,5,9,10,11,12-Hexahydro-3-methoxy-11-methyl-6H-benzofuro[3a,3,2-ef][2]benzazepine-6-amine] | 40 µM
COc1ccc2c3c1O[C@@H]1C[C@H](O)C=CC31CCN(c1ncccn1)C2 (stereo partly shown) [SPH-1229] | 38 µM
COc1ccc2c3c1O[C@@H]1C[C@H](O)C=CC31CCN(C(=O)Nc1ccc3ccccc3c1)C2 (stereo partly shown) [SPH-1232] | 36 µM

Structure (SMILES) | IC50
COc1ccc2c3c1O[C@@H]1C[C@H](O)C=CC31CCN(CCCN)C2 (stereo partly shown) [SPH-1235] | 3.4 µM
C=CCNC(=S)N1CCC23C=C[C@@H](O)C[C@H]2Oc2c(OC)ccc(c23)C1 (stereo partly shown) [SPH-1236] | 21 µM
COc1ccc2c3c1O[C@@H]1C[C@H](O)C=CC31CCN(C(=O)Nc1ccc(Cl)cc1)C2 (stereo partly shown) [SPH-1237] | 24 µM
CCN(CC)c1nc(N(CC)CC)nc(N2CCC34C=C[C@@H](O)C[C@H]3Oc3c(OC)ccc(c34)C2)n1 (stereo partly shown) [SPH-1243] | 40 µM
CCN(CC)c1nccc(N2CCC34C=C[C@@H](O)C[C@H]3Oc3c(OC)ccc(c34)C2)n1 (stereo partly shown) [SPH-1245] | 25 µM
COc1ccc2c3c1O[C@@H]1C[C@H](O)C=CC31CCN(CCC(=O)NC(C)(C)C)C2 (stereo partly shown) [SPH-1249] | 45 µM
COc1cc(C)c2c3c1O[C@@H]1C[C@H](O)C=CC31CC[N+](C)(Cc1ccc(C(F)(F)F)cc1)C2 (stereo partly shown) [SPH-1253] | 60 µM
COC(=O)/C=C(\C(=O)OC)N1CCC23C=C[C@@H](O)C[C@H]2Oc2c(OC)ccc(c23)C1 (stereo partly shown) [SPH-1259] | 140 µM
COc1ccc2c3c1O[C@@H]1C[C@H](O)C=CC31CCN(CCC(=O)NC(C)C)C2 (stereo partly shown) [SPH-1262] | 54.5 µM
COc1ccc2c3c1O[C@@H]1C[C@H](O)C=CC31CCN(C(=O)NC(C)c1ccccc1)C2 (stereo partly shown) [SPH-1267] | 30 µM
COc1ccc2c3c1O[C@@H]1CC(O)C=CC31CCN(C(N)=O)C2 (stereo partly shown) [SPH-1268] | 44 µM
COc1ccc2c3c1O[C@@H]1C[C@H](O)C=CC31CCN(C(=O)NC(C)C)C2 (stereo partly shown) [SPH-1269] | 2.6 µM
COc1ccc2c3c1O[C@@H]1C[C@H](O)C=CC31CCN(C(=O)NC(C)(C)C)C2 (stereo partly shown) [SPH-1270] | 2.5 µM
COc1ccc2c3c1O[C@@H]1CC(O)C=CC31CCN(/C(=N/C#N)SC)C2 (stereo partly shown) [SPH-1272] | 6.7 µM
COc1ccc2c3c1O[C@@H]1CC(O)C=CC31CCN(c1ccccc1)C2 (stereo partly shown) [SPH-1280] | 0.5 µM
COc1ccc2c3c1O[C@@H]1CC(O)C=CC31CCN(c1cccs1)C2 (stereo partly shown) [SPH-1282] | 4 µM
COc1ccc2c3c1O[C@H]1CC(O)C=CC31CCN(C(=O)NC(C)(C)C)C2 (stereo partly shown) [SPH-1283] | 93 µM
COc1ccc2c3c1O[C@H]1CC(O)C=CC31CCN(C(=O)NC(C)C)C2 (stereo partly shown) [SPH-1284] | 8 µM
COc1ccc2c3c1O[C@@H]1CC(O)C=CC31CCN(CCCN1CCCCC1)C2 (stereo partly shown) [SPH-1286] | 0.3 µM
CNC(=S)N1CCC23C=C[C@@H](O)C[C@H]2Oc2c(OC)ccc(c23)C1 (stereo partly shown) [SPH-1287] | 18.5 µM

Structure (SMILES) | IC50
COc1ccc2c3c1O[C@@H]1CC(O)C=CC31CCN(CC1CC1)C2 (stereo partly shown) [SPH-1289] | 0.7 µM
COc1ccc2c3c1O[C@@H]1CC(O)C=CC31CCN(C)C2C#N (stereo partly shown) [SPH-1290] | 1.2 µM
COc1ccc2c3c1O[C@@H]1CC(O)C=CC31CCN(C)C2C#N (stereo partly shown) [SPH-1291] | 0.8 µM
COc1ccc2c3c1O[C@@H]1CC(O)C=CC31CCN(C(=O)OCC1c3ccccc3-c3ccccc31)C2 (stereo partly shown) [SPH-1292] | 40 µM
COc1ccc2c3c1O[C@@H]1CC(O)C=CC31CCN(C)C2C (stereo partly shown) [SPH-1293] | 4.2 µM
COc1ccc2c3c1O[C@@H]1CC(O)C=CC31CCN(CC#N)C2 (stereo partly shown) [SPH-1295] | 15 µM
COc1ccc2c3c1O[C@@H]1CC(O)C=CC31CCN(C(=O)Oc1ccccc1)C2 (stereo partly shown) [SPH-1296] | 46 µM
COc1ccc2c3c1O[C@@H]1CC(O)C=CC31CCN(CCCN1CC3CC1CN3c1ccc(F)cc1)C2 (stereo partly shown) [SPH-1312] | 3 µM
COc1ccc2c3c1O[C@@H]1CC(O)C=CC31CCN(CC(=O)N1CC3CC1CN3c1ccccc1)C2 (stereo partly shown) [SPH-1314] | 8.4 µM
COc1ccc2c3c1O[C@@H]1CC(O)C=CC31CCN(CCCO)C2 (stereo partly shown) [SPH-1315] | 2.8 µM
COc1cc(C)c2c3c1O[C@@H]1CC(O)C=CC31CCN(C)C2C#N (stereo partly shown) [SPH-1317] | 80 µM
COc1cc(C)c2c3c1OC1CC(O)C=CC31CCN(C)C2C (stereo not shown) [SPH-1320] | 83 µM
COc1ccc2c3c1O[C@@H]1CC(O)C=CC31CCN(C(=S)Oc1ccccc1)C2 (stereo partly shown) [SPH-1328] | 7.2 µM
COc1ccc2c3c1O[C@H]1CC(O)C=CC31CCN(CCCN1CCCCC1)C2 (stereo partly shown) [SPH-1333] | 9 µM
COc1cc2c(cc1OC)C(=O)C(CCCCN1CCC34C=CC(O)C[C@H]3Oc3c(OC)ccc(c34)C1)C2 (stereo partly shown) [SPH-1335] | 0.02 µM
COc1cc2c(cc1OC)C(=O)C(CCCCCN1CCC34C=CC(O)C[C@H]3Oc3c(OC)ccc(c34)C1)C2 (stereo partly drawn) [SPH-1359, 2-[5-[(4aS,6R,8aS)-6-Hydroxy-3-methoxy-5,6,9,10,11,12-hexahydro-4aH-benzofuro[3a,3,2-e,f][2]benzazepine-11-yl]pentyl]-5,6-dimethoxyindan-1-one] | 0.0052 µM
COc1cc2c(cc1OC)C(=O)C(CCCCCN1CCC34C=CC(O)C[C@H]3Oc3c(OC)ccc(c34)C1)C2 (stereo partly shown) [SPH-1375] | 0.023 µM
COc1cc2c(cc1OC)C(=O)C(CCCCN1CCC34C=CC(O)C[C@H]3Oc3c(OC)ccc(c34)C1)C2 (stereo partly shown) [SPH-1376] | 0.02 µM
